Results from patent US20260226086A1, “COMPOUNDS AND COMPOSITIONS AS STAT3 DEGRADERS AND USES THEREOF” (REGENTS OF THE UNIVERSITY OF MICHIGAN, priority 2023, published 2026).

Key:
Format in all cases: cell-based
SUP-M2 cells = assay: CellTiter-Glo 2.0 cell viability assay, SUP-M2; conditions: SUP-M2, 96 h, 4 days
Description: (§1) For example, cell viability may be determined by CellTiter-Glo 2.0 Cell Viability Assay. In a typical procedure, cells seeded at certain amounts of cells (e.g., 1000 cells) per well are incubated with serially diluted compounds for certain period (e.g., 4 days) under certain conditions (e.g., at 37° C. with 5% CO2). At the end of treatment, CellTiter-Glo 2.0 is added to the wells and luminescence is acquired on TECAN SPARK plate reader. Untreated cells are used as control, Data points are fit with an equation (e.g., a four-parameter equation) to generate a concentration-response curve. IC50 values are calculated using a nonlinear regression analysis of the mean±SD from triplicate.
(§2) SU-DHL-1 and SUP-M2 cell viability was determined by CellTiter-Glo 2.0 Cell Viability Assay (Promega). SU-DHL-1 cell line was purchased from ATCC (Manassas, VA) and SUP-M2 (ACC-509) was purchased from DSMZ (Germany). RPMI 1640 medium and fetal bovine serum (FBS) were purchased from Gibco/Thermo Fisher Scientific. In a typical procedure, cells seeded at 1000 cells per well in 384-well white plates (Corning) were incubated with serially diluted compounds for 4 days at 37° C. with 5% C02. At the end of treatment, CellTiter-Glo 2.0 was added to the wells and luminescence was acquired on TECAN SPARK plate reader. Untreated cells were used as control. Data points were fit with a four-parameter equation to generate a concentration-response curve. IC50 values were calculated using a nonlinear regression analysis of the mean±SD from triplicate.

STAT3 = biological target: T1, STAT3 (Homo sapiens, UniProt P40763); assay: HiBiT assay, STAT3 degradation in STAT3-HiBiT KI HeLa cells; conditions: for Dmax at 1 µM / DC50: 24 h; for DC50: read-out: STAT3 Degradation (HeLa 24 h HiBit) DC50
T1 construct: This cell line is a clone created by using CRISPR-Cas9 to fuse HiBiT to the 3′ end of STAT3 in HeLa cells; host or cells: STAT3-HiBiT KI HeLa cell line (CRISPR-Cas9 knock-in clone)
Description: STAT3 degradation may be determined by HiBiT assay. STAT3-HiBiT KI HeLa cell line, which is a clone created by using CRTISPR-Cas9 to fuse HiBiT to the 3′ end of STAT3 in HeLa cells, may be used for this assay. In a typical procedure, cells seeded at certain amounts of cells (e.g., 20000 cells) per well are incubated with serially diluted compounds for certain period of time (e.g., 24 hours) under certain conditions (e.g., at 37° C. with 5% CO2). At the end of treatment, Nano-Glo HiBiT Lytic Detection reagents is added to the wells and luminescence is acquired on TECAN SPARK plate reader. Untreated cells are used as control. Data points are fit with a four-parameter equation to generate a concentration-response curve. IC50 values are calculated using a nonlinear regression analysis of the mean±SD from triplicate.
STAT3-HiBiT KI HeLa cell line was purchased from Promega. This cell line is a clone created by using CRISPR-Cas9 to fuse HiBiT to the 3′ end of STAT3 in HeLa cells. DMEM medium and FBS were purchased from Gibco/Thermo Fisher Scientific. STAT3 degradation was determined based on quantification of luminescent signal using Nano-Glo HiBiT Lytic Detection System. In a typical procedure, cells seeded at 20000 cells per well in 96-well white plates (Corning) were incubated with serially diluted compounds for 24 hours at 37° C. with 5% CO2. At the end of treatment, Nano-Glo HiBiT Lytic Detection reagents was added to the wells and luminescence was acquired on TECAN SPARK plate reader. Untreated cells were used as control. Data points were fit with a four-parameter equation to generate a concentration-response curve. IC50 values were calculated using a nonlinear regression analysis of the mean±SD from triplicate.

SU-DHL-1 cells = assay: CellTiter-Glo 2.0 cell viability assay, SU-DHL-1; conditions: Homo sapiens, 96 h, 4 days
Description: as §1, §2

T1 sequence (P40763 whole entry): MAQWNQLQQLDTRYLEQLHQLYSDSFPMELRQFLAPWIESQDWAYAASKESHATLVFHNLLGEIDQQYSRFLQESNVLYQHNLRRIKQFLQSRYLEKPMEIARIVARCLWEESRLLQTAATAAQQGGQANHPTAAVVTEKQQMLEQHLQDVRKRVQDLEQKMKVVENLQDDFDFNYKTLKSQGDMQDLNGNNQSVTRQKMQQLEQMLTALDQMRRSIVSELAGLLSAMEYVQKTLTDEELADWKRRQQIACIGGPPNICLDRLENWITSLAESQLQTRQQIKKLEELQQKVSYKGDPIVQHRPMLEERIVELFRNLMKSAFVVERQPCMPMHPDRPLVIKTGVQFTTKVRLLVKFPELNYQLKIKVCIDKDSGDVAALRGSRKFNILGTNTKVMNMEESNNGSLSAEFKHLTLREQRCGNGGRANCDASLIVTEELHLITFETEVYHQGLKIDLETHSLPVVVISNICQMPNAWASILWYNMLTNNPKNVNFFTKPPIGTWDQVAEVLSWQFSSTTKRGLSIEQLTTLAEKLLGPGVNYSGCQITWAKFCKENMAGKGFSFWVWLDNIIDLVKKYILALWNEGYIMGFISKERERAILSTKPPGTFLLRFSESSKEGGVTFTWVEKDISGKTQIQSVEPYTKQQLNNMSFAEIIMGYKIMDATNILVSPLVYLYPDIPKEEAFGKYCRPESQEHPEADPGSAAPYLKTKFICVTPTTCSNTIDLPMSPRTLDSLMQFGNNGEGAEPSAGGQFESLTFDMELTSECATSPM

CC(=O)N1CC[C@H]2CC[C@@H](C(=O)N[C@@H](CCC(N)=O)COc3cccc(CCCc4cn([C@H](C(=O)N5C[C@H](O)C[C@H]5C(=O)N[C@@H](C)c5ccc(-c6scnc6C)cc5)C(C)(C)C)nn4)c3Cl)N2C(=O)[C@@H](NC(=O)c2cc3cc(C(=O)P(=O)(O)O)ccc3[nH]2)C1 [Compound 1, (2-(((5S,8S,10aR)-3-acetyl-8-(((S)-5-amino-1-(2-chloro-3-(3-(1-((S)-1-((2S,4R)-4-hydroxy-2-(((S)-1-(4-(4-methylthiazol-5-yl)phenyl)ethyl)carbamoyl)pyrrolidin-1-yl)-3,3-dimethyl-1-oxobutan-2-yl)-1H-1,2,3-triazol-4-yl)propyl)phenoxy)-5-oxopentan-2-yl)carbamoyl)-6-oxodecahydropyrrolo[1,2-a][1,5]diazocin-5-yl)carbamoyl)-1H-indole-5-carbonyl)phosphonic acid]
IC50 (SUP-M2 cells): < 10 nM
Dmax at 1 µM (STAT3): > 80%
DC50 (STAT3): < 10 nM
IC50 (SU-DHL-1 cells): < 10 nM

Cc1ncsc1-c1ccc([C@H](C)NC(=O)[C@@H]2C[C@@H](O)CN2C(=O)[C@@H](n2cc(CCCc3cccc(OC[C@H](CCC(N)=O)NC(=O)[C@@H]4CC[C@@H]5CCN(C(=O)C(C)C)C[C@H](NC(=O)c6cc7cc(C(=O)P(=O)(O)O)ccc7[nH]6)C(=O)N54)c3Cl)nn2)C(C)(C)C)cc1 [Compound 2, (2-(((5S,8S,10aR)-8-(((S)-5-amino-1-(2-chloro-3-(3-(1-((S)-1-((2S,4R)-4-hydroxy-2-(((S)-1-(4-(4-methylthiazol-5-yl)phenyl)ethyl)carbamoyl)pyrrolidin-1-yl)-3,3-dimethyl-1-oxobutan-2-yl)-1H-1,2,3-triazol-4-yl)propyl)phenoxy)-5-oxopentan-2-yl)carbamoyl)-3-isobutyryl-6-oxodecahydropyrrolo[1,2-a][1,5]diazocin-5-yl)carbamoyl)-1H-indole-5-carbonyl)phosphonic acid]
IC50 (SUP-M2 cells): < 10 nM
Dmax at 1 µM (STAT3): > 80%
DC50 (STAT3): < 10 nM
IC50 (SU-DHL-1 cells): < 10 nM

Cc1ncsc1-c1ccc([C@H](C)NC(=O)[C@@H]2C[C@@H](O)CN2C(=O)[C@@H](n2cc(CCc3cccc(OC[C@H](CCC(N)=O)NC(=O)[C@@H]4CC[C@@H]5CCN(C(=O)C(C)C)C[C@H](NC(=O)c6cc7cc(C(=O)P(=O)(O)O)ccc7[nH]6)C(=O)N54)c3Cl)nn2)C(C)(C)C)cc1 [Compound 3, (2-(((5S,8S,10aR)-8-(((S)-5-amino-1-(2-chloro-3-(2-(1-((S)-1-((2S,4R)-4-hydroxy-2-(((S)-1-(4-(4-methylthiazol-5-yl)phenyl)ethyl)carbamoyl)pyrrolidin-1-yl)-3,3-dimethyl-1-oxobutan-2-yl)-1H-1,2,3-triazol-4-yl)ethyl)phenoxy)-5-oxopentan-2-yl)carbamoyl)-3-isobutyryl-6-oxodecahydropyrrolo[1,2-a][1,5]diazocin-5-yl)carbamoyl)-1H-indole-5-carbonyl)phosphonic acid]
IC50 (SUP-M2 cells): 10 to 100 nM
Dmax at 1 µM (STAT3): > 80%
DC50 (STAT3): 10 to 100 nM
IC50 (SU-DHL-1 cells): 10 to 100 nM

CC(=O)N1CC[C@H]2CC[C@@H](C(=O)N[C@@H](CCC(N)=O)COc3cccc(CCCc4cn([C@H](C(=O)N5C[C@H](O)C[C@H]5C(=O)N[C@@H](CCN5CCOCC5)c5ccc(-c6scnc6C)cc5)C(C)(C)C)nn4)c3Cl)N2C(=O)[C@@H](NC(=O)c2cc3cc(C(=O)P(=O)(O)O)ccc3[nH]2)C1 [Compound 4, (2-(((5S,8S,10aR)-3-acetyl-8-(((S)-5-amino-1-(2-chloro-3-(3-(1-((S)-1-((2S,4R)-4-hydroxy-2-(((S)-1-(4-(4-methylthiazol-5-yl)phenyl)-3-morpholinopropyl)carbamoyl)pyrrolidin-1-yl)-3,3-dimethyl-1-oxobutan-2-yl)-1H-1,2,3-triazol-4-yl)propyl)phenoxy)-5-oxopentan-2-yl)carbamoyl)-6-oxodecahydropyrrolo[1,2-a][1,5]diazocin-5-yl)carbamoyl)-1H-indole-5-carbonyl)phosphonic acid]
IC50 (SUP-M2 cells): 10 to 100 nM
Dmax at 1 µM (STAT3): > 80%
DC50 (STAT3): 10 to 100 nM
IC50 (SU-DHL-1 cells): 10 to 100 nM

CC(=O)N1CC[C@H]2CC[C@@H](C(=O)N[C@@H](CCC(N)=O)COc3cccc(CCCc4cn([C@H](C(=O)N5C[C@H](O)C[C@H]5C(=O)N[C@@H](CN5CCOCC5)c5ccc(-c6scnc6C)cc5)C(C)(C)C)nn4)c3Cl)N2C(=O)[C@@H](NC(=O)c2cc3cc(C(=O)P(=O)(O)O)ccc3[nH]2)C1 [Compound 5, (2-(((5S,8S,10aR)-3-acetyl-8-(((S)-5-amino-1-(2-chloro-3-(3-(1-((S)-1-((2S,4R)-4-hydroxy-2-(((R)-1-(4-(4-methylthiazol-5-yl)phenyl)-2-morpholinoethyl)carbamoyl)pyrrolidin-1-yl)-3,3-dimethyl-1-oxobutan-2-yl)-1H-1,2,3-triazol-4-yl)propyl)phenoxy)-5-oxopentan-2-yl)carbamoyl)-6-oxodecahydropyrrolo[1,2-a][1,5]diazocin-5-yl)carbamoyl)-1H-indole-5-carbonyl)phosphonic acid]
IC50 (SUP-M2 cells): 10 to 100 nM
Dmax at 1 µM (STAT3): > 80%
DC50 (STAT3): 10 to 100 nM
IC50 (SU-DHL-1 cells): 10 to 100 nM

CCS(=O)(=O)c1ccc(CNC(=O)[C@H](CCC(N)=O)NC(=O)[C@@H]2CC[C@@H]3CCN(C(=O)CCCCCc4cn([C@H](C(=O)N5C[C@H](O)C[C@H]5C(=O)N[C@@H](COCCOCCOC)c5ccc(-c6scnc6C)cc5)C(C)(C)C)nn4)C[C@H](NC(=O)c4cc5cc(C(=O)P(=O)(O)O)ccc5[nH]4)C(=O)N32)cc1 [Compound 40]
IC50 (SUP-M2 cells): 10 to 100 nM
DC50 (STAT3): 10 to 100 nM
STAT3 Degradation (HeLa 24 h HiBit) Dmax (@1 μM) (STAT3): A (A (>=80%))

COCCOCCOC[C@H](NC(=O)[C@@H]1C[C@@H](O)CN1C(=O)[C@@H](n1cc(CCCc2cccc(OC[C@H](CCC(N)=O)NC(=O)[C@@H]3CC[C@@H]4CCN(C(C)=O)C[C@H](NC(=O)c5cc6cc(C(=O)P(=O)(O)O)ccc6[nH]5)C(=O)N43)c2Cl)nn1)C(C)(C)C)c1ccc(-c2scnc2C)cc1 [Compound 41, (2-(((5S,8S,10aR)-3-acetyl-8-(((S)-5-amino-1-(2-chloro-3-(3-(1-((S)-1-((2S,4R)-4-hydroxy-2-(((R)-2-(2-(2-methoxyethoxy)ethoxy)-1-(4-(4-methylthiazol-5-yl)phenyl)ethyl)carbamoyl)pyrrolidin-1-yl)-3,3-dimethyl-1-oxobutan-2-yl)-1H-1,2,3-triazol-4-yl)propyl)phenoxy)-5-oxopentan-2-yl)carbamoyl)-6-oxodecahydropyrrolo[1,2-a][1,5]diazocin-5-yl)carbamoyl)-1H-indole-5-carbonyl)phosphonic acid]
IC50 (SUP-M2 cells): 10 to 100 nM
DC50 (STAT3): 10 to 100 nM
STAT3 Degradation (HeLa 24 h HiBit) Dmax (@1 μM) (STAT3): A (A (>=80%))

CCS(=O)(=O)c1ccc(CNC(=O)[C@H](CCC(N)=O)NC(=O)[C@@H]2CC[C@@H]3CCN(C(=O)CCCCCc4cn([C@H](C(=O)N5C[C@H](O)C[C@H]5C(=O)N[C@@H](COCCOCCOCCOC)c5ccc(-c6scnc6C)cc5)C(C)(C)C)nn4)C[C@H](NC(=O)c4cc5cc(C(=O)P(=O)(O)O)ccc5[nH]4)C(=O)N32)cc1 [Compound 45]
IC50 (SUP-M2 cells): 10 to 100 nM
Dmax at 1 µM (STAT3): > 80%
DC50 (STAT3): 10 to 100 nM
